These results are taken from patent US20220161456A1, “S[…] PRESERVATIVE COMPOSITION COMPRISING POLYMERIC BETAINE AND CARBAMATE” (Troy Corporation, priority 2019, published 2022).

Holding throughout (test): ASTM D4445-10 fungal growth on dip-treated Radiata pine specimens
What all share (format): cell-based
Conditions in all cases: rating 0 (No Growth) to 5 (Complete Growth), one month, 28° C.

The subject of test [1] is mixture of Aspergillus niger (ATCC #6275) and Penicillium funiculosum (ATCC #11797). How it is done:
(§1) Radiata pine lumber was machined to specimens with size of 7 mm by 20 mm in cross section and 70 mm long. Solutions prepared as described above were used to treat the machined Radiata pine specimens. The treatment was carried out in a 600 mL beaker. Two unused test pieces were placed on the bottom of the beaker, and the specimens, four in a layer, were placed on the previous layers until all the treatment replicates were included. The specimens were held down with a finger bearing down on a watch glass and submerged in treating solution for 15 seconds. After 15 seconds, the beaker was drained but with specimens still held down, and then was tightly covered with a piece of plastic sheet to prevent drying and was stored overnight. Similarly, untreated control specimens were treated with water.
(§2) One day after treatment, duplicate wood specimens from the same treatment group were tested according to ASTM D4445-10 methodology. The wood specimens were checked for inhibition against sapstain fungi and molds Trichoderma pseudokoningii (ATCC #26801), Aureobasidium pullulans (ATCC #9348), and a mixture of Aspergillus niger (ATCC #6275) and Penicillium funiculosum (ATCC #11797). This method is described below:
(§3) (1) Placed duplicate wood specimens on top of polyester mesh and laid on a stack of four (4) filter paper squares (approximately 2 inches by 2.5 inches) presoaked in 5 mL sterile DI water.
(§4) (2) Prepared fungal mixture from freshly grown slants of each test organism.
(§5) (3) Added 2 mL of DI water and 0.1% Tween 20 to the slant and inverted to mix.
(§6) (4) Poured the concentrate into a total volume of 16 mL.
(§7) (5) Enumerated the stock via hemocytometer and adjusted to […] with additional DI water.
(§8) (6) Inoculated wood specimens via applying 0.25 mL of one of the three separate fungal suspensions to the top of the wood and distributing evenly on the surface with an L-spreader.
(§9) (7) Placed inoculated wood specimens in a humidity chamber for one month at 95% or larger relative humidity and 28° C.
(§10) (8) Rated wood specimens with a rating from “0” (No Growth) to “5” (Complete Growth).
as §1, with “treat” for “treat the”
(§11) One day after treatment, duplicate wood specimens from the same treatment group were tested according to ASTM D4445-10(2019) methodology. The wood specimens were checked for inhibition against sapstain fungi and molds Trichoderma pseudokoningii (ATCC #26801), Aureobasidium pullulans (ATCC #9348), and a mixture of Aspergillus niger (ATCC #6275) and Penicillium funiculosum (ATCC #11797). […]

For test [2], the system named is Trichoderma pseudokoningii (ATCC #26801). The method, then:
as §1, §2, §3, §4, §5, §6, §7, §8, §9, §10
as §1, with “treat” for “treat the”
as §11

Test [3] relates to Aureobasidium pullulans (ATCC #9348). The method, then:
as §1, §2, §3, §4, §5, §6, §7, §8, §9, §10
as §1, with “treat” for “treat the”
as §11

Setting [4] is: 2400 ppm treatment solution, Example 2, eight replicates.
Where [5] appears, read: 2400 ppm treatment solution, Example 3, ten replicates.
Setting [6] is: 4800 ppm treatment solution, Example 2, eight replicates.

With `CCCCNC(=O)OCC#CI` [IPBC, 3-iodo-2-propynyl butyl carbamate], the entries for the “Average Scoring A.n. + P.f.” value in test [1] (setting [4]), in test [1] (setting [5]) and in test [1] (setting [6]) were 0.0, 2.1 and 0.0, respectively. The “Average Scoring T.p.” value in test [2] (setting [4]) was 2.6; in test [2] (setting [5]), 1.7; in test [2] (setting [6]), 2.8. Besides, the “Average Scoring A.p.” value is listed as 0.0 in test [3] (setting [4]), 0 in test [3] (setting [5]) and 0.0 in test [3] (setting [6]).

On to “didecyl bis(hydroxyethyl) ammonium borate [DPAB]”, for which the figures for the “Average Scoring A.n. + P.f.” value in test [1] (setting [4]), in test [1] (setting [5]) and in test [1] (setting [6]) were 5.0, 2 and 4.9, respectively. Further, the figures for the “Average Scoring T.p.” value in test [2] (setting [4]), in test [2] (setting [5]) and in test [2] (setting [6]) were 2.5, 2 and 2.0, respectively. Also, the “Average Scoring A.p.” value was 3.3 in test [3] (setting [4]), 3.6 in test [3] (setting [5]) and 0.8 in test [3] (setting [6]).
